Experimental findings from patent US20250051327A1, “MALT-1 MODULATORS” (EXSCIENTIA AI LIMITED, priority 2020, published 2025) are described below.

What is called IC50 is the concentration that gives 50% inhibition.

Test [1] deals with Recombinant human MALT-1 (amino acids 340-824) (Homo sapiens (Human), UniProt Q9UDY8). The test is described as follows: MALT-1 inhibition assay (fluorogenic substrate Ac-LRSR-Rh110-DP). It is filed as biochemical. The conditions noted are these: recombinant human MALT-1, substrate Ac-LRSR-Rh110-DP. An outline of the steps:
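Reactions were started with fluorogenic substrate Ac-LRSR-Rh110-DP (10 μM final) against 3 nM enzyme and kept dark at 25° C for 60 minutes. IC50 values came from 4-parameter logistic fits of percent inhibition calculated from relative fluorescence units.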

For test [2], the system named is IL-2 secretion by human effector memory T cells (TEM). Nature of the test: Effector memory T cells IL-2 release assay. It is filed as cell-based. As to conditions: T-cell; human CD4+ effector memory T cells, CD3/CD28 bead stimulation, 24 h; read-out: CD4TC IL2 IC50. A digest of the protocol:
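Human CD4+ effector memory T cells from healthy-donor buffy coats were stimulated with anti-CD3/CD28 Dynabeads and exposed to 10 semi-log compound doses (0.1% DMSO) for 24 h at 37 °C. Supernatant IL-2 was measured by HTRF, and IC50 came from a 4-parameter logistic fit to maximal IL-2. Viability was checked by flow cytometry.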

Recombinant human MALT-1 (amino acids 340-824), sequence (Q9UDY8 340-824): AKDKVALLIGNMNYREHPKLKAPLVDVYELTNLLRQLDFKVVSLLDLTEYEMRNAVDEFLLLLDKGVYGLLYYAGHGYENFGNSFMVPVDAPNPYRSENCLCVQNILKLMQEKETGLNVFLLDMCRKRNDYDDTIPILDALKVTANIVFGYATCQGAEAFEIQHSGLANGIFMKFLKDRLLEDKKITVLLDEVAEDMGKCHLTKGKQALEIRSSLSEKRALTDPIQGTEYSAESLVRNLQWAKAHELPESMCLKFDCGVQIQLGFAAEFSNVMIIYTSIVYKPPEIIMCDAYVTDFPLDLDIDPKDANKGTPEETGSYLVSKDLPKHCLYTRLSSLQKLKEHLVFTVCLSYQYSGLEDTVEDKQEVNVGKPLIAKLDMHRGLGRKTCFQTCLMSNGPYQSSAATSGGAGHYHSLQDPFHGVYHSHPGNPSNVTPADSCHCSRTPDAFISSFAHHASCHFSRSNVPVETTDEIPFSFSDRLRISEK

`C[C@@H]1CCN(c2ccc([C@H](N(C)C(=O)[C@H]3CCC(=O)NC3)C(F)(F)F)cc2)c2cnc3cc(Cl)nn3c21` (relative stereo) [CPD0074549, (3rel-S)-N-[(1S)-1-[4-[(13rel-R)-4-chloro-13-methyl-2,3,7,10-tetrazatricyclo[7.4.0.0^2,6]trideca-1(9),3,5,7-tetraen-10-yl]phenyl]-2,2,2-trifluoro-ethyl]-N-methyl-6-oxo-piperidine-3-carboxamide]: the IC50 in test [1] is 37 nM; in test [2], 142 nM.

As to `COC[C@]1(C)CCN(c2ccc([C@H](N(C)C(=O)[C@H]3CC[S@@+]([O-])CC3)C(F)(F)F)cc2)c2cnc3cc(Cl)nn3c21` (relative stereo) [CPD0073135, (1rel-s,4rel-s)-N-[(1S)-1-[4-[(13rel-R)-4-chloro-13-(methoxymethyl)-13-methyl-2,3,7,10-tetrazatricyclo[7.4.0.0^2,6]trideca-1(9),3,5,7-tetraen-10-yl]phenyl]-2,2,2-trifluoro-ethyl]-N-methyl-1-oxo-1λ^4-thiane-4-carboxamide], the half-maximal inhibitory concentration (IC50) amounted to 106 nM in test [1] and 130 nM in test [2].

Turning to `COc1ccc2ncc(Nc3ccc([C@H](N(C)C(=O)[C@H]4CCN(C(=O)CO)C4)C(F)(F)F)cc3)c([C@H](C)OC)c2n1` (relative stereo) [CPD0075882, (3 rel S)-1-(2-hydroxyacetyl)-N-methyl-N-[(1S)-2,2,2-trifluoro-1-[4-[[6-methoxy-4-[(1 rel S)-1-methoxyethyl]-1,5-naphthyridin-3-yl]amino]phenyl]ethyl]pyrrolidine-3-carboxamide], the values for the IC50 in test [1] and in test [2] were 64 nM and 40 nM, respectively.

As to `CN(C)CC(=O)N1CC[C@@H](C(=O)N(C)[C@@H](c2ccc(N3CCCc4c3cnc3cc(Cl)nn43)cc2)C(F)(F)F)C1` (relative stereo) [CPD0075877, (3rel-S)-N-[(1S)-1-[4-(4-chloro-2,3,7,10-tetrazatricyclo[7.4.0.0^2,6]trideca-1(9),3,5,7-tetraen-10-yl)phenyl]-2,2,2-trifluoro-ethyl]-1-[2-(dimethylamino)acetyl]-N-methyl-pyrrolidine-3-carboxamide], the IC50 in test [1] was found to be 115 nM; in test [2] it was 172 nM.

Consider `CN(C(=O)[C@H]1C[C@H]([S@@+](C)(=N)[O-])C1)[C@@H](c1ccc(N2CCCc3c2cnc2cc(Cl)nn32)cc1)C(F)(F)F` [CPD0073225, (1S,3r)-N-[(1S)-1-(4-{4-chloro-2,3,7,10-tetraazatricyclo[7.4.0.0^2,6]trideca-1(9),3,5,7-tetraen-10-yl}phenyl)-2,2,2-trifluoroethyl]-3-[(S)-imino(methyl)oxo-λ^6-sulfanyl]-N-methylcyclobutane-1-carboxamide], for which the IC50 was determined as 53 nM in test [1] and 122 nM in test [2].

For `C[C@H]1CCN(c2ccc([C@H](N(C)C(=O)[C@@H]3CCC(=O)NC3)C(F)(F)F)cc2)c2cnc3cc(Cl)nn3c21` (relative stereo) [CPD0074567, (3rel-R)-N-[(1S)-1-[4-[(13rel-S)-4-chloro-13-methyl-2,3,7,10-tetrazatricyclo[7.4.0.0^2,6]trideca-1(9),3,5,7-tetraen-10-yl]phenyl]-2,2,2-trifluoro-ethyl]-N-methyl-6-oxo-piperidine-3-carboxamide], the 50% inhibitory concentration (IC50) stood at 31 nM in test [1] and 87 nM in test [2].

`COc1ccc2ncc(Nc3ccc([C@H](N(C)C(=O)[C@H]4CC[S@](=N)(=O)CC4)C(F)(F)F)cc3)c([C@H](C)OC)c2n1` (stereo in doubt) [CPD0073130, (1 rel-r,4rel-r)-1-imino-N-methyl-1-oxo-N-[(1S)-2,2,2-trifluoro-1-[4-({6-methoxy-4-[(1 rel-S)-1-methoxyethyl]-1,5-naphthyridin-3-yl}amino)phenyl]ethyl]-1λ^6-thiane-4-carboxamide]: the concentration for half-maximal inhibition (IC50) in test [1] worked out at 61 nM; in test [2], 24 nM.

Consider `CN(C(=O)C1CCS(=O)(=O)CC1)[C@@H](c1ccc(N2CCC(C)(C)c3c2cnc2cc(Cl)nn32)cc1)C(F)(F)F` [CPD0019589, N-[(1S)-1-(4-{4-chloro-13,13-dimethyl-2,3,7,10-tetraazatricyclo[7.4.0.0^2,6]trideca-1(9),3,5,7-tetraen-10-yl}phenyl)-2,2,2-trifluoroethyl]-N-methyl-1,1-dioxo-1λ^6-thiane-4-carboxamide], for which the IC50 in test [1] worked out at 38 nM; in test [2], 32 nM.

Take `CN(C(=O)[C@@H]1CC12CCS(=O)(=O)CC2)[C@@H](c1ccc(N2CCCc3c2cnc2cc(Cl)nn32)cc1)C(F)(F)F` (relative stereo) [CPD0073921, (1rel-R)-N-[(1S)-1-(4-{4-chloro-2,3,7,10-tetraazatricyclo[7.4.0.0^2,6]trideca-1(9),3,5,7-tetraen-10-yl}phenyl)-2,2,2-trifluoroethyl]-N-methyl-6,6-dioxo-6λ^6-thiaspiro[2.5]octane-1-carboxamide]: the figures for the IC50 in test [1] and in test [2] were 109 nM and 186 nM, respectively.

In the case of `CN(C(=O)C1CCS(=O)(=O)CC1)[C@@H](c1ccc(N2CC(C)(C)Cc3c2cnc2cc(Cl)nn32)cc1)C(F)(F)F` [CPD0022149, N-[(1S)-1-(4-{4-chloro-12,12-dimethyl-2,3,7,10-tetraazatricyclo[7.4.0.0^2,6]trideca-1(9),3,5,7-tetraen-10-yl}phenyl)-2,2,2-trifluoroethyl]-N-methyl-1,1-dioxo-1λ^6-thiane-4-carboxamide], the half-maximal inhibitory concentration (IC50) amounted to 71 nM in test [1] and 93 nM in test [2].

On to `CN(C(=O)[C@H]1CC[S@@+]([O-])CC1)[C@@H](c1ccc(N2CCC(C)(C)c3c2cnc2cc(F)nn32)cc1)C(F)(F)F` (relative stereo) [CPD0072780, (1rel-s,4rel-s)-N-methyl-1-oxo-N-[(1S)-2,2,2-trifluoro-1-(4-{4-fluoro-13,13-dimethyl-2,3,7,10-tetraazatricyclo[7.4.0.0^2,6]trideca-1(9),3,5,7-tetraen-10-yl}phenyl)ethyl]-1λ^4-thiane-4-carboxamide], for which the IC50 in test [1] turned out to be 75 nM; in test [2] it was 107 nM.

For the compound `CN(C(=O)CC1CCCS1(=O)=O)[C@@H](c1ccc(N2CCCc3c2cnc2cc(Cl)nn32)cc1)C(F)(F)F` (stereo partly drawn) [CPD0021934, N-[(1S)-1-(4-{4-chloro-2,3,7,10-tetraazatricyclo[7.4.0.0^2,6]trideca-1(9),3,5,7-tetraen-10-yl}phenyl)-2,2,2-trifluoroethyl]-2-(1,1-dioxo-1λ^6-thiolan-2-yl)-N-methylacetamide], the concentration for half-maximal inhibition (IC50) came out at 369 nM in test [1] and 588 nM in test [2].

As to `CC(=O)N1CCC[C@@H](C(=O)N(C)[C@@H](c2ccc(N3CCCc4c3cnc3cc(Cl)nn43)cc2)C(F)(F)F)C1` (relative stereo) [CPD0073499, (3rel-R)-1-acetyl-N-[(1S)-1-(4-{4-chloro-2,3,7,10-tetraazatricyclo[7.4.0.0^2,6]trideca-1(9),3,5,7-tetraen-10-yl}phenyl)-2,2,2-trifluoroethyl]-N-methylpiperidine-3-carboxamide], the IC50 in test [1] was found to be 127 nM; in test [2], 175 nM.

`CN(C(=O)C1CCOC1)[C@@H](c1ccc(N2CCCc3c2cnc2cc(Cl)nn32)cc1)C(F)(F)F` (stereo partly drawn) [CPD0021568, N-[(1S)-1-(4-{4-chloro-2,3,7,10-tetraazatricyclo[7.4.0.0^2,6]trideca-1(9),3,5,7-tetraen-10-yl}phenyl)-2,2,2-trifluoroethyl]-N-methyloxolane-3-carboxamide]: the values for the 50% inhibitory concentration (IC50) in test [1] and in test [2] were 169 nM and 143 nM, respectively.
